Data as given in patent US9656990B2, “Cathepsin cysteine protease inhibitors” (Merck Sharp & Dohme Corp., priority 2014, dated 2017).

Tests used:
human cathepsin F = target: T1, human cathepsin F (Homo sapiens, UniProt Q9UBX1); experiment: Cathepsin F Assay; format: biochemical; conditions: IP from dose response curve; Z-Phe-Arg-AMC substrate, pH 5.5; read-out: hCat F (IP (nM))
T1 sequence (Q9UBX1 271-484): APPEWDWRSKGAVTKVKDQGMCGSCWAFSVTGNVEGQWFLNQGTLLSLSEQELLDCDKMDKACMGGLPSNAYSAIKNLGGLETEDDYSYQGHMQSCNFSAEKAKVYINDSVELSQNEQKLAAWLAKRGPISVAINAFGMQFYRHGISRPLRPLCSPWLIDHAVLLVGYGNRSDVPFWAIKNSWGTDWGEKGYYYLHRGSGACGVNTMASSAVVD
Description: Serial dilutions (1/3) from 500 μM down to 0.025 μM of test compounds were prepared in dimethyl sulfoxide (DMSO). Then 0.5 μL of DMSO from each dilution were added to 18.75 μL of assay buffer (MES, 50 mM (pH 5.5); EDTA, 2.5 mM; DTT, 2.5 mM and 10% DMSO) containing human cathepsin F (10 nM) in assay buffer solution. The assay solutions were mixed for 5-10 seconds on a shaker plate and incubated for 15 minutes at room temperature. Z-Phe-Arg-AMC (8 μM) in 6.25 μL of assay buffer was added to the assay solutions. Hydrolysis of the coumarin leaving group (AMC) was followed by spectrofluorometry (Exλ=360 nm; Emλ=460 nm) for 20 minutes. Percent of inhibition were calculated by fitting experimental values to standard mathematical model for dose response curve.

human cathepsin K = human cathepsin K (UniProt P43236, Y175D/V274L, species not given); experiment: Cathepsin K Assay; format: biochemical; conditions: IP from dose response curve; Z-Leu-Arg-AMC substrate, pH 5.5; read-out: hrbCat K (IP (nM))

SMILES | IC50 (human cathepsin F) | IC50 (human cathepsin K)
CS(=O)(=O)c1ccc(-c2cn(-c3ccccc3)nc2C2CCC(F)(F)CC2C(=O)NCC#N)cc1 (racemic) [Example 76, (1R,2R and 1S,2S)-N-(cyanomethyl)-5,5-difluoro-2-(4-(4-(methylsulfonyl)phenyl)-1-phenyl-1H-pyrazol-3-yl)cyclohexanecarboxamide] | 11 nM | 0.8 nM
CS(=O)(=O)c1ccc(-c2cn(-c3ccc(F)cc3)nc2C2CCC(F)(F)CC2C(=O)NCC#N)cc1 (racemic) [Example 77, (1R,2R and 1S,2S)-N-(cyanomethyl)-5,5-difluoro-2-(1-(4-fluorophenyl)-4-(4-(methylsulfonyl)phenyl)-1H-pyrazol-3-yl)cyclohexanecarboxamide] | 9 nM | 1.24 nM
CS(=O)(=O)c1ccc(-c2cn(-c3ccc4ccccc4c3)nc2C2CCC(F)(F)CC2C(=O)NCC#N)cc1 (racemic) [Example 78, (1R,2R and 1S,2S)-N-(cyanomethyl)-5,5-difluoro-2-(4-(4-(methylsulfonyl)phenyl)-1-(naphthalen-2-yl)-1H-pyrazol-3-yl)cyclohexanecarboxamide] | 4 nM | 2.12 nM
N#CCNC(=O)C1CC(F)(F)CCC1c1nn(-c2ccc(F)cc2)cc1-c1ccc(N2CCS(=O)(=O)CC2)cc1 (racemic) [Example 79, (1R,2R and 1S,2S)-N-(cyanomethyl)-2-(4-(4-(1,1-dioxidothiomorpholino)phen-yl)-1-(4-fluorophenyl)-1H-pyrazol-3-yl)-5,5-difluorocyclohexanecarbox-amide] | 17 nM | 0.81 nM
N#CC1(NC(=O)C2CC(F)(F)CCC2c2nn(-c3ccc(F)cc3)cc2-c2ccc(N3CCS(=O)(=O)CC3)cc2)CC1 (racemic) [Example 80, (1R,2R and 1S,2S)-N-(1-cyanocyclopropyl)-2-(4-(4-(1,1-dioxidothiomorpholino)phen-yl)-1-(4-fluorophenyl)-1H-pyrazol-3-yl)-5,5-difluorocyclohexanecarbox-amide] | 35 nM | 1 nM
CC(C#N)NC(=O)[C@@H]1CCC(F)(F)C[C@H]1c1nn(-c2ccc(F)cn2)cc1-c1ccc(N2CCS(=N)(=O)CC2)cc1 (single isomer, unassigned) [Example 22, (1R,2R)-N-((R or S)-1-cyanoethyl)-4,4-difluoro-2-(1-(5-fluoropyridin-2-yl)-4-(4-(1-imino-1-oxidothiomorpholino)phenyl)-1H-pyrazol-3-yl)cyclohexanecarboxamide] | – | 264 nM
CN=S1(=O)CCN(c2ccc(-c3cn(-c4ccc(F)cn4)nc3[C@@H]3CC(F)(F)CC[C@H]3C(=O)NC(C)C#N)cc2)CC1 (single isomer, unassigned) [Example 24, (1R,2R)-N-((R or S)-1-cyanoethyl)-4,4-difIuoro-2-(1-(5-fluoropyridin-2-yl)-4-(4-(1-(methylimino)-1-oxidothiomorpholino)phenyl)-1H-pyrazol-3-yl)cyclohexanecarboxamide] | – | 169 nM
CC1(C)CC[C@@H](c2nn(-c3ccc(F)cc3)cc2-c2ccc(N3CCS(=O)(=O)CC3)cc2)[C@H](C(=O)NC2(C#N)CC2)C1 (single isomer, unassigned) [Example 126, (1R,2R) or (1S,2S)-N-(1-cyanocyclopropyl)-2-(4-(4-(1,1-dioxidothiomorpholino)phen-yl)-1-(4-fluorophenyl)-1H-pyrazol-3-yl)-5,5-dimethylcyclohexanecarbox-amide] | – | 116 nM
C[C@@H](C#N)NC(=O)[C@@H]1C[C@@H](F)CC[C@H]1c1nn(-c2ncccc2F)cc1-c1ccc(N2CCS(=O)(=O)CC2)cc1 [Example 12, (1R,2R,5S)—N—((S)-1-Cyanoethyl)-2-(4-(4-(1,1-dioxidothiomorpholino)phenyl)-1-(3-fluoropyridin-2-yl)-1H-pyrazol-3-yl)-5-fluorocyclohexanecarboxamide] | – | 6.89 nM
N#CC1(NC(=O)[C@@H]2CCC(F)(F)C[C@H]2c2nn(-c3ncccc3F)cc2-c2ccc(N3CCS(=N)(=O)CC3)cc2)CC1 [Example 39, (1R,2R)-N-(1-cyanocyclopropyl)-4,4-difluoro-2-(1-(3-fluoropyridin-2-yl)-4-(4-(1-imino-1-oxidothiomorpholino)phenyl)-1H-pyrazol-3-yl)cyclohexanecarboxamide] | – | 48.7 nM
CN=S1(=O)CCN(c2ccc(-c3cn(-c4ncccc4F)nc3[C@@H]3CC(F)(F)CC[C@H]3C(=O)NC3(C#N)CC3)cc2)CC1 [Example 40, (1R,2R)-N-(1-cyanocyclopropyl)-4,4-difluoro-2-(1-(3-fluoropyridin-2-yl)-4-(4-(1-(methylimino)-1-oxidothiomorpholino)phenyl)-1H-pyrazol-3-yl)cyclohexanecarboxamide] | – | 22 nM
CC(C)[C@@H](C#N)NC(=O)[C@@H]1C[C@@H](F)CC[C@H]1c1nn(-c2ncccc2F)cc1-c1ccc(N2CCS(=O)(=O)CC2)cc1 [Example 49, (1R,2R,5S)-N-((S)-1-cyano-2-methylpropyl)-2-(4-(4-(1,1-dioxidothiomorpholino)phen-yl)-1-(3-fluoropyridin-2-yl)-1H-pyrazol-3-yl)-5-fluorocyclohexanecarboxamide] | – | 8.35 nM
CN=S1(=O)CCN(c2ccc(-c3cn(-c4ncccc4F)nc3[C@@H]3CC[C@H](F)C[C@H]3C(=O)NC3(C#N)CC3)cc2)CC1 [Example 53, (1R,2R,5S)-N-(1-cyanocyclopropyl)-5-fluoro-2-(1-(3-fluoropyridin-2-yl)-4-(4-(1-(methylimino)-1-oxidothiomorpholino)phenyl)-1H-pyrazol-3-yl)cyclohexanecarboxamide] | – | 6.54 nM
CN=S1(=O)CCN(c2ccc(-c3cn(-c4ncccc4F)nc3[C@@H]3CC[C@H](F)C[C@H]3C(=O)N[C@@H](C)C#N)cc2)CC1 [Example 54, (1R,2R,5S)-N-((S)-1-cyanoethyl)-5-fluoro-2-(1-(3-fluoropyridin-2-yl)-4-(4-(1-(methylimino)-1-oxidothiomorpholino)phenyl)-1H-pyrazol-3-yl)cyclohexanecarboxamide] | – | 7.89 nM
CN=S1(=O)CCN(c2ccc(-c3cn(-c4ncccc4F)nc3[C@@H]3CC[C@H](F)C[C@H]3C(=O)N[C@H](C#N)C(C)C)cc2)CC1 [Example 55, (1R,2R,5S)-N-((S)-1-cyano-2-methylpropyl)-5-fluoro-2-(1-(3-fluoropyridin-2-yl)-4-(4-(1-(methylimino)-1-oxidothiomorpholino)phenyl)-1H-pyrazol-3-yl)cyclohexanecarboxamide] | – | 14.3 nM
N#CC1(NC(=O)[C@@H]2C[C@@H](F)CC[C@H]2c2nn(-c3ncccc3F)cc2-c2ccc(N3CCS(=N)(=O)CC3)cc2)CC1 [Example 56, (1R,2R,5S)-N-(1-cyanocyclopropyl)-5-fluoro-2-(1-(3-fluoropyridin-2-yl)-4-(4-(1-imino-1-oxidothiomorpholino)phenyl)-1H-pyrazol-3-yl)cyclohexanecarboxamide] | – | 5.69 nM
CC(C)[C@@H](C#N)NC(=O)[C@@H]1C[C@@H](F)CC[C@H]1c1nn(-c2ncccc2F)cc1-c1ccc(N2CCS(=N)(=O)CC2)cc1 [Example 58, (1R,2R,5S)-N-((S)-1-cyano-2-methylpropyl)-5-fluoro-2-(1-(3-fluoropyridin-2-yl)-4-(4-(1-imino-1-oxidothiomorpholino)phenyl)-1H-pyrazol-3-yl)cyclohexanecarboxamide] | – | 16 nM
N#CC1(NC(=O)[C@@H]2CCC(F)(F)C[C@H]2c2nn(-c3ccc(C(F)(F)F)cn3)cc2-c2ccc(N3CCS(=O)(=O)CC3)cc2)CC1 [Example 149, (1R,2R)-N-(1-cyanocyclopropyl)-2-(4-(4-(1,1-dioxidothiomorpholino)phen-yl)-1-(5-(trifluoromethyl)pyridin-2-yl)-1H-pyrazol-3-yl)-4,4-difluorocyclohexanecarbox-amide] | – | 2.58 nM
N#CC1(NC(=O)[C@@H]2CCC(F)(F)C[C@H]2c2nn(-c3ccc(Cl)cn3)cc2-c2ccc(N3CCS(=O)(=O)CC3)cc2)CC1 [Example 150, (1R,2R)-2-(1-(5-chloropyridin-2-yl)-4-(4-(1,1-dioxidothiomorpholino)phen-yl)-1H-pyrazol-3-yl)-N-(1-cyanocyclopropyl)-4,4-difluorocyclohexanecarbox-amide] | – | 1.43 nM
N#CC1(NC(=O)[C@@H]2CCC(F)(F)C[C@H]2c2nn(-c3ccc(F)cn3)cc2-c2ccc(N3CCS(=O)(=O)CC3)cc2)CC1 [Example 151, (1R,2R)-N-(1-cyanocyclopropyl)-2-(4-(4-(1,1-dioxidothiomorpholino)phen-yl)-1-(5-fluoropyridin-2-yl)-1H-pyrazol-3-yl)-4,4-difluorocyclohexanecarbox-amide] | – | 2.44 nM
N#CC1(NC(=O)[C@@H]2CCCC[C@H]2c2nn(-c3ncccn3)cc2-c2ccc(N3CCS(=O)(=O)CC3)cc2)CC1 [Example 160, (1R,2R)-N-(1-cyanocyclopropyl)-2-(4-(4-(1,1-dioxidothiomorpholino)phen-yl)-1-(pyrimidin-2-yl)-1H-pyrazol-3-yl)cyclohexanecarboxamide] | – | 34.7 nM
